Reference: patent publication US8614201B2 (Janssen Pharmaceutica NV, priority 2009, dated 2013)

What follows are molecules tested against Human TRPA1 (Homo sapiens, UniProt O75762) (assay: Assay 1: In vitro cellular testing of TRPA1 modulation (CHO-TREx, Fluo-3 calcium fluorescence, AITC agonist)). Details: CHO-TREx cells expressing human TRPA1; Fluo-3 fluorescence (FLIPR/Tetra); agonist 15 μM allyl isothiocyanate (AITC); 30 minute antagonist incubation.
Sequence of Human TRPA1 (O75762 whole entry): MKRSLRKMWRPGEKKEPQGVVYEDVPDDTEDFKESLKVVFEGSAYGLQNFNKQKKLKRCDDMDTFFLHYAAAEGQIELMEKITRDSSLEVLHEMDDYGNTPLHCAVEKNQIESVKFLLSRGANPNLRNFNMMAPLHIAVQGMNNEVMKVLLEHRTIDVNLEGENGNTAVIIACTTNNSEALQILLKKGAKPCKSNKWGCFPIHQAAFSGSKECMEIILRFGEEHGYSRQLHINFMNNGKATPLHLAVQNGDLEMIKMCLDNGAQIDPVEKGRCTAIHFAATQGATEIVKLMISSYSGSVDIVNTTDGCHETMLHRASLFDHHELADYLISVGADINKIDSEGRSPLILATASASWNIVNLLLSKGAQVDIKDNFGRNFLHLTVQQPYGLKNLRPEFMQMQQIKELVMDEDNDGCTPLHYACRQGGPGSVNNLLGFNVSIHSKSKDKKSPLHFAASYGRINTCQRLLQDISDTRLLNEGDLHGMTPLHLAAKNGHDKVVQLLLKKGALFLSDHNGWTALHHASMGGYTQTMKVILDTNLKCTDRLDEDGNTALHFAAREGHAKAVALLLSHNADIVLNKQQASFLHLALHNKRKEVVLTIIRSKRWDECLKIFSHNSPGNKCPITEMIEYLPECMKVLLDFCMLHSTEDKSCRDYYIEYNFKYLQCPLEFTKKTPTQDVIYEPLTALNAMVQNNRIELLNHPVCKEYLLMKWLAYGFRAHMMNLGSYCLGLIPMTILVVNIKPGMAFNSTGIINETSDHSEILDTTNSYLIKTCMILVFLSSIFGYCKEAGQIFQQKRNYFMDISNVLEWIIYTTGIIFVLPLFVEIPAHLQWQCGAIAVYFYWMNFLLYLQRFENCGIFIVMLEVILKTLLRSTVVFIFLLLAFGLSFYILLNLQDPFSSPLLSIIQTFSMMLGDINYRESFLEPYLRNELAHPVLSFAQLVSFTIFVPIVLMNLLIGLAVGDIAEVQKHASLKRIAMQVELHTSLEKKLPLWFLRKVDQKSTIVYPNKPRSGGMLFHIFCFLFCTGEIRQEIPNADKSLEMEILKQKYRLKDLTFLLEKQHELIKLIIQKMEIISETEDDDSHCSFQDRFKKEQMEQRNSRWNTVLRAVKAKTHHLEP
Assay type: cell-based
Set-up: expressed in transfected cells; host or cells: CHO-TREx cells (Invitrogen), vector pcDNA4/TO
Protocol: Assay 1: In Vitro Cellular Testing of TRPA1 Modulation
Human TRPA1 (NCBI accession number NM_007332.1) was cloned into pcDNA4/TO. CHO-TREx cells (Invitrogen, Carlsbad, Calif.) were stably transfected with pcDNA4/TO-TRPA1 using lipofection to generate a clonal cell line that expressed human TRPA1 in a tetracycline-inducible manner. Culture medium used was Ham's F-12 supplemented with 10% fetal bovine serum, 2 mM L-glutamine, 5 μg/ml blasticidin and 200 μg/ml zeocin. Cells were seeded in black-walled clear-bottom 96-well plates at a density of 50,000 cells per well and cultured overnight at 37° C. with 5% CO2 in culture medium supplemented with 1 μg/ml tetracycline. On the day of the experiment, cells were washed 3 times with HEPES buffered saline (in mM: NaCl 137, MgCl2 0.5, KCl 2, dextrose 5, CaCl2 2 and HEPES 10; pH 7.4). Cells were then loaded with calcium-sensitive fluorescent dye by incubation in the presence of 4 μM Fluo-3 AM (TefLabs, Austin, Tex.) at room temperature in the dark for 60 minutes. After incubation with dye, cells were washed in assay buffer and, if appropriate, antagonists were added at this time. Following a further 30 minute incubation, cells were assayed using a Fluorometric Imaging Plate Reader (FLIPR™) or a Tetra (both manufactured by Molecular Devices, CA) to simultaneously monitor Fluo-3 fluorescence in all wells (λexcitation=488 nm, λemission=540 nm). Changes in fluorescence were monitored for 3 minutes after the addition of 15 μM allyl isothiocyanate (AITC) as an agonist. Concentration-dependence of receptor blocking was determined by exposing each well of cells in duplicate rows of a 96-well plate to a serial dilution of test compound. The concentration series usually started at 10 μM with a three-fold serial decrement in concentration. The magnitude of the response to agonist challenge was determined by measuring the fluorescence before and 3 minutes after the addition of the agonist. The degree of blocking was determined by comparing the response to that of negative (no added antagonist) and positive (10 μM ruthenium red) control wells. Data were analyzed using a non-linear regression program (Origin; OriginLab, MA) to fit the concentration-response data to a Hill function. Antagonist potencies were determined as the concentration required to produce 50% reduction in the response as compared to the negative and positive controls.
CC(C)N1CCN(c2nc(CNC(=O)[C@@H]3CCCN3S(=O)(=O)c3ccc(F)cc3)cc(-c3ccc(C(F)(F)F)cc3)n2)CC1 [Example 9, 1-(4-Fluoro-benzenesulfonyl)-pyrrolidine-2S-carboxylic acid [2-(4-isopropyl-piperazin-1-yl)-6-(4-trifluoromethyl-phenyl)-pyrimidin-4-ylmethyl]-amide] gave an IC50 of 542 nM.
Molecule CN(C)c1nc(CNC(=O)[C@@H]2CCCN2S(=O)(=O)c2ccc(F)cc2)cc(-c2ccc(C(F)(F)F)cc2)n1 [Example 10, 1-(4-Fluoro-benzenesulfonyl)-pyrrolidine-2S-carboxylic acid [2-dimethylamino-6-(4-trifluoromethyl-phenyl)-pyrimidin-4-ylmethyl]-amide] has an IC50 of 30 nM.
For O=C(NCc1cc(-c2ccc(C(F)(F)F)cc2)ncn1)[C@@H]1CCCN1S(=O)(=O)c1ccc(F)cc1 [Example 11, 1-(4-Fluoro-benzenesulfonyl)-pyrrolidine-2S-carboxylic acid [6-(4-trifluoromethyl-phenyl)-pyrimidin-4-ylmethyl]-amide], the IC50 was 65 nM.
Work on CN1CCC(CNc2nc(CNC(=O)[C@@H]3CCCN3S(=O)(=O)c3ccc(F)cc3)cc(-c3ccc(C(F)(F)F)cc3)n2)C1 (stereo partly drawn) [Example 12, 1-(4-Fluoro-benzenesulfonyl)-pyrrolidine-2S-carboxylic acid [2-[(1-methyl-pyrrolidin-3-ylmethyl)-amino]-6-(4-trifluoromethyl-phenyl)-pyrimidin-4-ylmethyl]-amide] yielded an IC50 of 1090 nM.
Molecule CCC(CC)N1CCN(c2nc(CNC(=O)[C@@H]3CCCN3S(=O)(=O)c3ccc(F)cc3)cc(-c3ccc(C(F)(F)F)cc3)n2)CC1 [Example 13, 1-(4-Fluoro-benzenesulfonyl)-pyrrolidine-2S-carboxylic acid [2-[4-(1-ethyl-propyl)-piperazin-1-yl]-6-(4-trifluoromethyl-phenyl)-pyrimidin-4-ylmethyl]-amide] has an IC50 of 90 nM.
CNc1nc(CNC(=O)[C@@H]2CCCN2S(=O)(=O)c2ccc(F)cc2)cc(-c2ccc(C(F)(F)F)cc2)n1 [Example 14, 1-(4-Fluoro-benzenesulfonyl)-pyrrolidine-2S-carboxylic acid [2-methylamino-6-(4-trifluoromethyl-phenyl)-pyrimidin-4-ylmethyl]-amide] gave an IC50 of 21 nM.
CCN1CCN(c2nc(CNC(=O)[C@@H]3CCCN3S(=O)(=O)c3ccc(F)cc3)cc(-c3ccc(C(F)(F)F)cc3)n2)CC1 [Example 15, 1-(4-Fluoro-benzenesulfonyl)-pyrrolidine-2S-carboxylic acid [2-(4-ethyl-piperain-1-yl)-6-(4-trifluoromethyl-phenyl)-pyrimidin-4-ylmethyl]-amide] was tested, and the IC50 was 418 nM.
For CC(Nc1nc(CNC(=O)[C@@H]2CCCN2S(=O)(=O)c2ccc(F)cc2)cc(-c2ccc(C(F)(F)F)cc2)n1)c1ccccn1 (stereo partly drawn) [Example 16, 1-(4-Fluoro-benzenesulfonyl)-pyrrolidine-2S-carboxylic acid [2-(1-pyridin-2-yl-ethylamino)-6-(4-trifluoromethyl-phenyl)-pyrimidin-4-ylmethyl]-amide], the IC50 was 34 nM.
Molecule CN(C)CCN1CCN(c2nc(CNC(=O)[C@@H]3CCCN3S(=O)(=O)c3ccc(F)cc3)cc(-c3ccc(C(F)(F)F)cc3)n2)CC1 [Example 17, 1-(4-Fluoro-benzenesulfonyl)-pyrrolidine-2S-carboxylic acid [2-[4-(2-dimethylamino-ethyl)-piperazin-1-yl]-6-(4-trifluoromethyl-phenyl)-pyrimidin-4-ylmethyl]-amide] has an IC50 of 2080 nM.
In the case of CN(C)CCN(C)c1nc(CNC(=O)[C@@H]2CCCN2S(=O)(=O)c2ccc(F)cc2)cc(-c2ccc(C(F)(F)F)cc2)n1 [Example 18, 1-(4-Fluoro-benzenesulfonyl)-pyrrolidine-2S-carboxylic acid [2-[(2-dimethylamino-ethyl)-methyl-amino]-6-(4-trifluoromethyl-phenyl)-pyrimidin-4-ylmethyl]-amide], the IC50 is reported as 1850 nM.
O=C(NCc1cc(-c2ccc(C(F)(F)F)cc2)nc(N2CCN(Cc3cccnc3)CC2)n1)[C@@H]1CCCN1S(=O)(=O)c1ccc(F)cc1 [Example 19, 1-(4-Fluoro-benzenesulfonyl)-pyrrolidine-2S-carboxylic acid [2-(4-pyridin-3-ylmethyl-piperazin-1-yl)-6-(4-trifluoromethyl-phenyl)-pyrimidin-4-ylmethyl]-amide] showed an IC50 of 16 nM.
For CN1CCC(CN2CCN(c3nc(CNC(=O)[C@@H]4CCCN4S(=O)(=O)c4ccc(F)cc4)cc(-c4ccc(C(F)(F)F)cc4)n3)CC2)CC1 [Example 20, 1-(4-Fluoro-benzenesulfonyl)-pyrrolidine-2S-carboxylic acid [2-[4-(1-methyl-piperidin-4-ylmethyl)-piperazin-1-yl]-6-(4-trifluoromethyl-phenyl)-pyrimidin-4-ylmethyl]-amide], the IC50 was 2050 nM.
O=C(NCc1cc(-c2ccc(C(F)(F)F)cc2)nc(N2CCN(Cc3ccncc3)CC2)n1)[C@@H]1CCCN1S(=O)(=O)c1ccc(F)cc1 [Example 21, 1-(4-Fluoro-benzenesulfonyl)-pyrrolidine-2S-carboxylic acid [2-(4-pyridin-4-ylmethyl-piperazin-1-yl)-6-(4-trifluoromethyl-phenyl)-pyrimidin-4-ylmethyl]-amide] showed an IC50 of 24 nM.
With O=C(NCc1cc(-c2ccc(C(F)(F)F)cc2)nc(N2CCN(Cc3ccccn3)CC2)n1)[C@@H]1CCCN1S(=O)(=O)c1ccc(F)cc1 [Example 22, 1-(4-Fluoro-benzenesulfonyl)-pyrrolidine-2S-carboxylic acid [2-(4-pyridin-2-ylmethyl-piperazin-1-yl)-6-(4-trifluoromethyl-phenyl)-pyrimidin-4-ylmethyl]-amide] the IC50 was 130 nM.
In the case of O=C(NCc1cc(-c2ccc(C(F)(F)F)cc2)nc(N2CCNCC2)n1)[C@@H]1CCCN1S(=O)(=O)c1ccc(F)cc1 [Example 23, 1-(4-Fluoro-benzenesulfonyl)-pyrrolidine-2S-carboxylic acid [2-piperazin-1-yl-6-(4-trifluoromethyl-phenyl)-pyrimidin-4-ylmethyl]-amide], the IC50 is reported as 4420 nM.
CC(C)CN1CCN(c2nc(CNC(=O)[C@@H]3CCCN3S(=O)(=O)c3ccc(Cl)s3)cc(-c3ccc(C(F)(F)F)cc3)n2)CC1 [Example 24, 1-(5-Chloro-thiophene-2-sulfonyl)-pyrrolidine-2S-carboxylic acid [2-(4-isobutyl-piperazin-1-yl)-6-(4-trifluoromethyl-phenyl)-pyrimidin-4-ylmethyl]-amide] was tested, and the IC50 was 24 nM.
Molecule CC1CCCN1c1nc(CNC(=O)[C@@H]2CCCN2S(=O)(=O)c2ccc(F)cc2)cc(-c2ccc(C(F)(F)F)cc2)n1 (stereo partly drawn) [Example 25, 1-(4-Fluoro-benzenesulfonyl)-pyrrolidine-2S-carboxylic acid [2-(2-methyl-pyrrolidin-1-yl)-6-(4-trifluoromethyl-phenyl)-pyrimidin-4-ylmethyl]-amide] has an IC50 of 63 nM.
Molecule C[C@H]1CCCN1c1nc(CNC(=O)[C@@H]2CCCN2S(=O)(=O)c2ccc(F)cc2)cc(-c2ccc(C(F)(F)F)cc2)n1 [Example 26, 1-(4-Fluoro-benzenesulfonyl)-pyrrolidine-2S-carboxylic acid [2-(2S-methyl-pyrrolidin-1-yl)-6-(4-trifluoromethyl-phenyl)-pyrimidin-4-ylmethyl]-amide] has an IC50 of 13 nM.
For C[C@@H]1CCCN1c1nc(CNC(=O)[C@@H]2CCCN2S(=O)(=O)c2ccc(F)cc2)cc(-c2ccc(C(F)(F)F)cc2)n1 [Example 27, 1-(4-Fluoro-benzenesulfonyl)-pyrrolidine-2S-carboxylic acid [2-(2R-methyl-pyrrolidin-1-yl)-6-(4-trifluoromethyl-phenyl)-pyrimidin-4-ylmethyl]-amide], the IC50 was 16 nM.
CNc1nc(CNC(=O)[C@@H]2CCCN2S(=O)(=O)c2ccc(Cl)s2)cc(-c2ccc(C(F)(F)F)cc2)n1 [Example 28, 1-(5-Chloro-thiophene-2-sulfonyl)-pyrrolidine-2S-carboxylic acid [2-methylamino-6-(4-trifluoromethyl-phenyl)-pyrimidin-4-ylmethyl]-amide] showed an IC50 of 81 nM.
With CN(C)c1nc(CNC(=O)[C@@H]2CCCN2S(=O)(=O)c2ccc(Cl)s2)cc(-c2ccc(C(F)(F)F)cc2)n1 [Example 29, 1-(5-Chloro-thiophene-2-sulfonyl)-pyrrolidine-2S-carboxylic acid [2-dimethylamino-6-(4-trifluoromethyl-phenyl)-pyrimidin-4-ylmethyl]-amide] the IC50 was 12 nM.
